In general, Kb refers to the affinity of an antagonist, worked out from how it opposes an agonist.

Where a name gives a salt, the structure may show the parent alone.

Here are results for one compound from patent US4707485A, “Substituted te[1]trahydroisoquinoline derivatives having β-adrenergic receptor activity” (Smithkline Beckman Corporation, priority 1985, dated 1987).

The target of this experiment is T1, β-adrenergic receptors (Cavia porcellus, UniProt H0W3H1).
T1 construct: The ventricles and adipose tissue were carefully cut away to leave the atria as an intact pair; from tissue; host or cells: isolated guinea pig atria (intact pair)
T1 sequence (H0W3H1 1-470): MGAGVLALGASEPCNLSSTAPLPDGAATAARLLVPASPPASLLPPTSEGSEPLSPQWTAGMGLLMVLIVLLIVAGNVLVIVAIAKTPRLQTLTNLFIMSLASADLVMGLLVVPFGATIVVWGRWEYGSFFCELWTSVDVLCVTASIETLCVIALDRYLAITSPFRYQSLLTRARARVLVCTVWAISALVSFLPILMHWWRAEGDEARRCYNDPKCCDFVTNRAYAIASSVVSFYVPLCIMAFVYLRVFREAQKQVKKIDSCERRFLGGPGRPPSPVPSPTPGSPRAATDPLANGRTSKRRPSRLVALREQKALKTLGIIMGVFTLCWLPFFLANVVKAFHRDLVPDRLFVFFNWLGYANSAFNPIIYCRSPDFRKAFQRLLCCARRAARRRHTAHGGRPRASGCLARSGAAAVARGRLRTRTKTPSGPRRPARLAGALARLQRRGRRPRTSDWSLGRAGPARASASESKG
In words: Inhibition of isoproterenol-induced enhancement of the rate of contraction of guinea pig atrial pairs in vitro (KB as β-antagonist). The following applies: guinea pig atria, versus isoproterenol, KB from dose ratio of isoproterenol EC50, 37° C., read-out: receptor dissociation constant (KB) as a β-antagonist. The format is cell-based. The method, then:
The β-blocking activity of the compounds of structure (I) can be assessed in a test for inhibition of isoproterenol-induced enhancement of the rate of contraction of guinea pig atrial pairs in vitro.
Inhibition of isoproterenol-induced enhancement of constricted guinea pig atria
A guinea pig (500-700 g) was injected with sodium pentobarbital (50 mg/kg, ip). When anesthetized, the heart was removed and placed in cold (5°-10° C.), oxygenated Krebs-Hensleit solution. The ventricles and adipose tissue were carefully cut away to leave the atria as an intact pair. A thread was tied to the apex of each atrium and the tissue suspended in a 50 ml tissue bath, attached to a force-displacement transducer. A diastolic tension of 1 g was maintained. Atrial contraction rate was measured using biotachometer, driven by the transducer amplifier.
A 30 minute stabilization period was allowed before obtaining the first dose response curve, during which time the tissue was washed several times with fresh solution. A concentration-response curve to isoprotererol was then determined, increasing agonist concentrations when the rate response to the previous dose had stabilized. After this determination, any β-antagonist activity of the test compound was measured via a concentration-response curve. […]

Take `COc1cc(CC2NCCc3cc(Cl)c(Cl)cc32)cc(OC)c1OC` (stereo not shown) [Example 1, 6,7-dichloro-1-(3,4,5-trimethoxybenzyl)-1,2,3,4-tetrahydroisoquinoline fumarate]: the Kb came out at 67 nM.
